Format in all cases: cell-based
One assay concerns MCF7:GFP-PDCD4^WT. In words: Fluorescence reporter assay for PDCD4 accumulation, wild type. Here is the method: (§1) Fluorescence Reporter Assay for PDCD4 Accumulation
(§2) This assay uses two stable cell lines expressing PDCD4 fused to a GFP tag.
(§3) The two stable cell lines MCF7:GFP-PDCD4^WT and MCF7:GFP-PDCD4^S71A/S76Awere grown in 10 ml DMEM+10% FBS and 1% Pen/Strep supplemented with 2 mg/ml Geneticin at 37° C./5% CO2. These cell lines were nucleofected as described above except for the additional supplementation of all media with 2 mg/ml Geneticin.
(§4) Fluorescent Reporter Assay
(§5) The cells were fixed by removing the growth media and adding 3.7% Formaldehyde in PBS to the cells. The cells were then incubated at RT for 20 mins and the plates washed 3× in PBS.
(§6) DRAQ5 DNA stain was added to the cells in PBS at a concentration of 1:10000 and incubated at RT for 1 hour protecting from light. The plate was washed 3× in PBS and read on the Perkin Elmer OPERA platform using the nuclei counting algorithm F in both the 488 nm channel (GFP) and 640 nm channel (DRAQ5). DMSO was used as a negative control and 10 μM MG132 was used as a positive control. Error bars represent standard deviation from 6 replicates. The data are expressed as percentage activity with DMSO (WT)=0% and 10 μM MG132 (WT)=100% activity.
(§7) This confirms that the stabilisation resulting from the compounds is dependent on the βTrCP/PDCD4 interaction and is not due to another mechanism such as a global increase in protein production.
In general terms: A reporter such as luciferase makes a cellular process visible.

Another assay concerns MCF7:GFP-PDCD4^S71A/S76A. In words: Fluorescence reporter assay for PDCD4 accumulation, mutant. The following applies: PDCD4 mutated to eliminate PDCD4-βTrCP interaction. Here is the method:
as §1, §2, §3, §4, §5, §6, §7

For the next assay, the system named is LNCaP (prostate cancer). In words: xCELLigence cell viability / proliferation, LNCaP. On the procedure:
Example 9—Cell Based Activity of Cell Permeable Compounds on the xCELLigence Platform
The effects of the compounds shown in FIGS. 14A-14B were tested on cancer cell lines MCF7 (breast cancer) and LNCaP (prostate cancer) using the xCELLigence platform (http://www.roche-applied-science.com/sis/xcelligence/ezhome.html). This method of measuring cell viability via measuring cell index is known in the art.
Different doses of the compounds were tested on MCF7 cells to see if there would be an effect on their cell viability.
The control compound was compared to its partner active compound (UBP037).
xCELLigence Method • Before starting the experiment add 50 μL of medium (RPMI 1640, 10% fetal bovine serum, 100 units/mL penicillin, 100 ug/mL streptomycin, and 2 mmol/L glutamine, all from GIBCO) to each well of 96 well E-plate (Roche) and place the plate in the xCELLigence platform to measure the background. • LNCaP/PNT-1 cells are seeded (LNCaPs 80000 cells/well; PNT1 3000 cells/well) in the plate in complete medium and equilibrated for 60 mins at RT before returning to the xCELLigence platform and incubating at 37° C./5% CO2. • 24 hrs after seeding, remove 100 μL of medium was removed from each well and cells were treated with compounds or DMSO diluted in 100 μL of OptiMEM (GIBCO). • Replace the plate in the xCELLigence platform • Cells growth can then be monitored in real-time by the cell index profile on the xCELLigence readout screen • Cell growth can be expressed as normalized cell index and doubling time/slope calculated using the RTCA software.

Non-standard residues stand in square brackets, D forms with d. Residues, ends and D or L forms follow the SMILES beside them. Groups on a side chain read outwards from the residue. *: point of attachment. X3 = CC(C)CCC[C@@H](C)[C@H]1CCC2C3CC=C4C[C@@H](OC(=O)*)CC[C@]4(C)C3CC[C@@]21C; Benzenesulfonyl(4-OMe) = COc1ccc(S(=O)(=O)*)cc1; Phe(3-F) = N[C@@H](Cc1cccc(F)c1)C(=O)O; Ahx = NCCCCCC(=O)O

Consider `COc1ccc(S(=O)(=O)N[C@H](CC(=O)O)C(=O)N[C@@H](CCC(=O)O)C(=O)NCC(=O)N[C@@H](Cc2cccc(F)c2)C(=O)N[C@@H](Cc2c[nH]c3ccccc23)C(=O)N[C@@H](CCC(=O)O)C(=O)NCCCCCC(=O)N[C@@H](CCCCNC(=O)CCCCCNC(=O)O[C@H]2CC[C@@]3(C)C(=CCC4C3CC[C@@]3(C)C4CC[C@@H]3[C@H](C)CCCC(C)C)C2)C(N)=O)cc1` (stereo partly drawn) [UBP036, 4-(MeO)PhSO2-dEGF(3F)WE-Ahx-K(Ahx-Chol)-NH2] ({Benzenesulfonyl(4-OMe)}-[dD]EG[Phe(3-F)]WE[Ahx]K([Ahx-X3])-NH2), for which the “accumulation of GFP-PDCD4, fluorescent reporter assay” value in the assay on MCF7:GFP-PDCD4^WT was “GFP-PDCD4 accumulation”. Also, the “accumulation of GFP-PDCD4 Mut, fluorescent reporter assay” value in the assay with MCF7:GFP-PDCD4^S71A/S76A is “no accumulation of PDCD4”. Also, in the assay on LNCaP (prostate cancer), the “cell growth / proliferation, xCELLigence” value is “inhibit the growth”.
